From US20070191363A1, “Heteroalkyl-substituted biphenyl-4-carboxylic acid arylamide analogues” (Neurogen Corporation, priority 2004, published 2007)
pIC50, pKi: −log10 of the molar value.

Columns and labels:
human capsaicin receptor [1] = target: T1, human capsaicin receptor (Homo sapiens, UniProt Q8NER1); assay: Calcium mobilization assay, determination of antagonist activity; assay type: cell-based; details: 50% decrease in the fluorescence response of cells exposed to capsaicin; cells expressing human capsaicin receptor
T1 construct: expressed in transfected cells
T1 sequence (Q8NER1 whole entry): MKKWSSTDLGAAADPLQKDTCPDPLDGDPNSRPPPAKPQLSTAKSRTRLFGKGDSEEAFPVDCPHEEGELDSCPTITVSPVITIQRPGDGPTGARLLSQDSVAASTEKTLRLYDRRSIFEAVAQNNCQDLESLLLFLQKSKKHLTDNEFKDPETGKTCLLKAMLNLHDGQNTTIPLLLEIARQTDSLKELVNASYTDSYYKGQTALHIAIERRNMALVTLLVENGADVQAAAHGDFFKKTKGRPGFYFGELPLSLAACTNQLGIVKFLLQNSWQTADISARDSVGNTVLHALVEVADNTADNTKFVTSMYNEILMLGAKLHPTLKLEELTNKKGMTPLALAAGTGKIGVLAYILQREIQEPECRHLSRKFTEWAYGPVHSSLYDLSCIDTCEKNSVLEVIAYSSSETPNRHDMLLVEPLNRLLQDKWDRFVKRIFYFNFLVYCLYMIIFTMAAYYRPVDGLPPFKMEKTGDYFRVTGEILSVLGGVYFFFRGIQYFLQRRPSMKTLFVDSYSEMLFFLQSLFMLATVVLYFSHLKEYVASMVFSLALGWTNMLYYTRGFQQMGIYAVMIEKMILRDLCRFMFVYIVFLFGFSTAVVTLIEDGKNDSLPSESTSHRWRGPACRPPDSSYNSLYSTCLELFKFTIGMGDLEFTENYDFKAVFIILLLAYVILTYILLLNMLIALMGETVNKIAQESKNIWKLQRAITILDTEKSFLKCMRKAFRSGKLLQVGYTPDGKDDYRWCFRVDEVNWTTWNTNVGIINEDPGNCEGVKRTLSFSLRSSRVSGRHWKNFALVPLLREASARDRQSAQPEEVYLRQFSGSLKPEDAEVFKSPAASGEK
Procedure: A cDNA encoding full length human capsaicin receptor (SEQ ID NO:1, 2 or 3 of U.S. Pat. No. 6,482,611) is subcloned in the plasmid pBK-CMV (Stratagene, La Jolla, Calif.) for recombinant expression in mammalian cells.
Human embryonic kidney (HEK293) cells are transfected with the pBK-CMV expression construct encoding the full length human capsaicin receptor using standard methods. The transfected cells are selected for two weeks in media containing G418 (400 μg/ml) to obtain a pool of stably transfected cells. Independent clones are isolated from this pool by limiting dilution to obtain clonal stable cell lines for use in subsequent experiments.
This Example illustrates a representative calcium mobilization assay for use in monitoring the response of cells expressing capsaicin receptor to capsaicin and other vanilloid ligands of the capsaicin receptor, as well as for evaluating test compounds for agonist and antagonist activity.
(§1) Cells transfected with expression plasmids (as described in Example 3) and thereby expressing human capsaicin receptor are seeded and grown to 70-90% confluency in FALCON black-walled, clear-bottomed 96-well plates (#3904, BECTON-DICKINSON, Franklin Lakes, N.J.). The culture medium is emptied from the 96 well plates and FLUO-3 AM calcium sensitive dye (Molecular Probes, Eugene, Oreg.) is added to each well (dye solution: 1 mg FLUO-3 AM, 440 μL DMSO and 440 μl 20% pluronic acid in DMSO, diluted 1:250 in Krebs-Ringer HEPES (KRH) buffer (25 mM HEPES, 5 mM KCl, 0.96 mM NaH2PO4, 1 mM MgSO4, 2 mM CaCl2, 5 mM glucose, 1 mM probenecid, pH 7.4), 50 μl diluted solution per well). Plates are covered with aluminum foil and incubated at 37° C. for 1-2 hours in an environment containing 5% CO2. After the incubation, the dye is emptied from the plates, and the cells are washed once with KRH buffer, and resuspended in KRH buffer.
To measure the ability of a test compound to agonize or antagonize a calcium mobilization response in cells expressing capsaicin receptors to capsaicin or other vanilloid agonist, the EC50 of the agonist capsaicin is first determined. An additional 20 μl of KRH buffer and 1 μl DMSO is added to each well of cells, prepared as described above. 100 μl capsaicin in KRH buffer is automatically transferred by the FLIPR instrument to each well. Capsaicin-induced calcium mobilization is monitored using either FLUOROSKAN ASCENT (Labsystems; Franklin, Mass.) or FLIPR (fluorometric imaging plate reader system; Molecular Devices, Sunnyvale, Calif.) instruments. Data obtained between 30 and 60 seconds after agonist application are used to generate an 8-point concentration response curve, with final capsaicin concentrations of 1 nM to 3 μM. […] software (Synergy Software, Reading, Pa.) is used to fit the data to the equation: y=a*(1/(1+(b/x)c)) to determine the 50% excitatory concentration (EC50) for the response. In this equation, y is the maximum fluorescence signal, x is the concentration of the agonist or antagonist (in this case, capsaicin), a is the Emax, b corresponds to the EC50 value and c is the Hill coefficient. Determination of Agonist Activity
Test compounds are dissolved in DMSO, diluted in 20 μl KRH buffer so that the final concentration of test compounds in the assay well is between 1 μM and 5 μM, and added to cells prepared as described above. The 96 well plates containing prepared cells and test compounds are incubated in the dark, at room temperature for 0.5 to 6 hours. It is important that the incubation not continue beyond 6 hours. Just prior to determining the fluorescence response, 100 μl capsaicin in KRH buffer at twice the EC50 concentration determined as described above is automatically added by the FLIPR instrument to each well of the 96 well plate for a final sample volume of 200 μl and a final capsaicin concentration equal to the EC50. The final concentration of test compounds in the assay wells is between 1 μM and 5 μM.

human capsaicin receptor [2] = target: T1, human capsaicin receptor; assay: Calcium mobilization assay, capsaicin agonist response; assay type: cell-based; details: capsaicin positive control, calcium mobilization in cells expressing human capsaicin receptor; read-out: approximate EC90 concentration
Procedure: as §1, with “Plates are covered with aluminum foil and incubated at 37° C. for 1-2 hours in an environment containing 5% CO2. After the incubation, the dye is emptied from the plates, and the cells are washed once with KRH buffer, and resuspended in KRH buffer.” left out
To measure the ability of a test compound to agonize or antagonize a calcium mobilization response in cells expressing capsaicin receptors to capsaicin or other vanilloid agonist, the EC50 of the agonist capsaicin is first determined. […] Capsaicin-induced calcium mobilization is monitored using either FLUOROSKAN ASCENT (Labsystems; Franklin, Mass.) or FLIPR (fluorometric imaging plate reader system; Molecular Devices, Sunnyvale, Calif.) instruments. […] In this equation, y is the maximum fluorescence signal, x is the concentration of the agonist or antagonist (in this case, capsaicin), a is the Emax, b corresponds to the EC50 value and c is the Hill coefficient. […]

VR = details: binds to VR with no more than moderate affinity; typical value; cited from earlier work

CC(C)(C)c1ccc(NC(=O)c2ccc(-c3ncccc3C(F)(F)F)cc2)cc1OCCN1CCCCC1 [Compound 4, N-[4-tert-Butyl-3-(2-piperidin-1-yl-ethoxy)-phenyl]-4-(3-trifluoromethyl-pyridin-2-yl)-benzamide]
pIC50 (human capsaicin receptor [1]): ≥ 6.00

COCCN(CCOC)CCOc1cc(NC(=O)c2ccc(-c3ncccc3C(F)(F)F)cc2)ccc1C(C)(C)C [Compound 5, N-(3-{2-[Bis-(2-methoxy-ethyl)-amino]-ethoxy}-4-tert-butyl-phenyl)-4-(3-trifluoromethyl-pyridin-2-yl)-benzamide]
pIC50 (human capsaicin receptor [1]): ≥ 6.00

CC(C)(C)c1ccc(NC(=O)c2ccc(-c3ncccc3C(F)(F)F)cc2O)cc1OCCO [Compound 7, N-[4-tert-Butyl-3-(2-hydroxy-ethoxy)-phenyl]-2-hydroxy-4-(3-trifluoromethyl-pyridin-2-yl)-benzamide]
pIC50 (human capsaicin receptor [1]): ≥ 6.00

CC(C)(C)c1ccc(NC(=O)c2ccc(-c3ncccc3C(F)(F)F)cc2)cc1OCCN1CCOCC1 [Compound 2, N-[4-tert-Butyl-3-(2-morpholin-4-yl-ethoxy)-phenyl]-4-(3-trifluoromethyl-pyridin-2-yl)-benzamide]
pIC50 (human capsaicin receptor [1]): ≥ 6.00

COc1cc(CNC(=O)CCCC/C=C/C(C)C)ccc1O [capsaicin]
EC90 (human capsaicin receptor [2]): ~100 nM

CC(C)(C)c1ccc(NC(=O)c2ccc(-c3ncccc3C(F)(F)F)cc2)cc1OCCO [Compound 1, N-[4-tert-Butyl-3-(2-hydroxy-ethoxy)-phenyl]-4-(3-trifluoromethyl-pyridin-2-yl)-benzamide]
pIC50 (human capsaicin receptor [1]): ≥ 6.00

CC(C)(C)c1ccc(NC(=O)c2ccc(-c3ncccc3C(F)(F)F)cc2O)cc1OCCN1CCCCC1 [Compound 9, N-[4-tert-Butyl-3-(2-piperidin-1-yl-ethoxy)-phenyl]-2-hydroxy-4-(3-trifluoromethyl-pyridin-2-yl)-benzamide]
pIC50 (human capsaicin receptor [1]): ≥ 6.00

CC1(C)CCCN(CCOc2cc(NC(=O)c3ccc(-c4ncccc4C(F)(F)F)cc3)ccc2C(C)(C)C)C1 [Compound 6, N-{4-tert-Butyl-3-[2-(3,3-dimethyl-piperidin-1-yl)-ethoxy]-phenyl}-4-(3-trifluoromethyl-pyridin-2-yl)-benzamide]
pIC50 (human capsaicin receptor [1]): ≥ 6.00

C[C@@H]1CN(CCOc2cc(NC(=O)c3ccc(-c4ncccc4C(F)(F)F)cc3)ccc2C(C)(C)C)C[C@H](C)O1 [Compound 3, N-{4-tert-Butyl-3-[2-(2,6-dimethyl-morpholin-4-yl)-ethoxy]-phenyl}-4-(3-trifluoromethyl-pyridin-2-yl)-benzamide (cis)]
pIC50 (human capsaicin receptor [1]): ≥ 6.00

C[C@@H]1CN(CCOc2cc(NC(=O)c3ccc(-c4ncccc4C(F)(F)F)cc3O)ccc2C(C)(C)C)C[C@H](C)O1 [Compound 8, N-{4-tert-Butyl-3-[2-(2,6-dimethyl-morpholin-4-yl)-ethoxy]-phenyl}-2-hydroxy-4-(3-trifluoromethyl-pyridin-2-yl)-benzamide (cis)]
pIC50 (human capsaicin receptor [1]): ≥ 6.00

Cl.Cl.Cl.Cl.Cl.Cl.N.N.N.N.N.N.N.N.N.N.N.N.N.N.[O-2].[O-2].[Ru+3].[Ru+3].[Ru+4] [ruthenium red]
pKi (VR): ≤ 3.85
